The structures appear in SMILES notation.

This data set in a line: Membrane penetration testing of piroxicam-containing cream, human skin membrane, test series (II). It is filed as in vitro ADME. Conditions: 1% piroxicam cream, 34° C., no air flow. How it is done: In the test, the acceptor phase comprises 0.9 weight % sodium chloride solution. The flow rate of the acceptor phase is 0.3 ml/min. During the first test series (I), a cellophane membrane, during the second test series (II), a human skin membrane was used. Temperature of the cell was kept at 34° C. During both test series, the cell was exposed to natural sunlight. No air flow was applied. The membrane was allowed to stabilize for 60 minutes. After the stabilization period, 300 to 400 mg of test preparation measured by analytical precision are applied to the membrane homogeneously in 2-3 seconds. The flow of the acceptor phase is resumed and effluent fractions for periods of 30 minute each are collected. […] The high-performance liquid chromatographic analysis is carried out using external standard method in a reversed phase system. The separation is carried out using a Nucleosil C18 (250 mm×4.6 mm i.d.) column and a buffer-acetonitrile-methanol (1000:660:340, v/v/v) mobile phase. The separation is performed at the temperature of 40° C. Flow rate of the mobile phase is 1.0 ml/min. Detection is carried out by ultraviolet photodiode array detector in the wavelength range of 250 to 450 nm.

In the case of `CN1C(C(=O)Nc2ccccn2)=C(O)c2ccccc2S1(=O)=O` [piroxicam], the “Cumulative amount of dissolved piroxicam, % Series (II)” value (shortened to “Cumulative amount … % Series (II)”) (fraction 1, 0-30 min) came out at 0.00%; the “Cumulative amount … % Series (II)” value (fraction 2, 30-60 min) stood at 0.00%; the “Cumulative amount … % Series (II)” value (fraction 3, 60-90 min) was found to be 0.00%; the “Cumulative amount … % Series (II)” value (fraction 4, 90-120 min) came to 0.00%; the “Cumulative amount … % Series (II)” value (fraction 5, 120-150 min) is on record as 0.01%; the “Cumulative amount … % Series (II)” value (fraction 6, 150-180 min) is 0.02%. Further, the “Cumulative amount … % Series (II)” value by setting is: (fraction 7, 180-210 min) 0.02%; (fraction 8, 210-240 min) 0.03%; (fraction 9, 240-270 min) 0.04%; (fraction 10, 270-300 min) 0.05%; (fraction 11, 300-330 min) 0.05%; (fraction 12, 330-360 min) 0.06%.

Source of the values: US20120167671A1, “METHOD AND APPARATUS FOR TESTING TRANSDERMAL MEDICAMENTS” (EGIS GYOGYSZERGYAR NYILVANOSAN MUKODO RESZVENYTARSASAG, priority 2009, published 2012).
